The target in this assay is α4β3δ GABAA receptor (Homo sapiens, UniProt P28472+P48169). The assay can be described thus: whole-cell patch clamp, potentiation of GABA EC20 current. Type of assay: cell-based. In general terms: In patch-clamp work, channel activity is measured electrically.

The source of these data is paper PMC5148695 (Neuropharmacology, 2016).

pEC50: −log10 of the molar value.

Sequence of α4β3δ GABAA receptor (P48169 36-554): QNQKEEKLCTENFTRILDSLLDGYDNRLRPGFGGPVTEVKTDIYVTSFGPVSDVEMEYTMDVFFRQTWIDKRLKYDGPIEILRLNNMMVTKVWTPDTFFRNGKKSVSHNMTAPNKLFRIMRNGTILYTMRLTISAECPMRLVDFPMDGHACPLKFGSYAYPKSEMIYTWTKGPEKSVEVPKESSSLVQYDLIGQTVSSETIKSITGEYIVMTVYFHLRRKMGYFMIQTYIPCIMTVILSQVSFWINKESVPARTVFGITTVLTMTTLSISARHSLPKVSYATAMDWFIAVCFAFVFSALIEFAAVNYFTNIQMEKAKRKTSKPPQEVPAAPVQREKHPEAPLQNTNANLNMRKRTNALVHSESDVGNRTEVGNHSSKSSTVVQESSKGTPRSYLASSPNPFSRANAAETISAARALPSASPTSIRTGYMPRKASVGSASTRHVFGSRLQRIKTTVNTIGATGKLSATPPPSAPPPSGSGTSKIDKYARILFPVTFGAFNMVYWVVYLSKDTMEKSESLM
Sequence of α4β3δ GABAA receptor (P28472 26-473): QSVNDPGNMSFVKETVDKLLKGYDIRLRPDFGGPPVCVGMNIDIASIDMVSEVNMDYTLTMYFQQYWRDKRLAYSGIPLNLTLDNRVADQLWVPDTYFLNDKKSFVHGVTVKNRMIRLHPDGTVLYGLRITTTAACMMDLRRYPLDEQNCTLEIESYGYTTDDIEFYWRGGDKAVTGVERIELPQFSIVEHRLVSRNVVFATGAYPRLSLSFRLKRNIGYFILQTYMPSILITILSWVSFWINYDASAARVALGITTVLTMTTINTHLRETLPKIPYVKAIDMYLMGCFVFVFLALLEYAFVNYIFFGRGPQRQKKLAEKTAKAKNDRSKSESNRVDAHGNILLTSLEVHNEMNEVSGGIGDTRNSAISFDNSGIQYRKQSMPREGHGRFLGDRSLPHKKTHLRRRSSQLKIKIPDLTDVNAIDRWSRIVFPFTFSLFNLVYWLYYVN
Sequence of α4β3δ GABAA receptor (O14764 25-452 partner): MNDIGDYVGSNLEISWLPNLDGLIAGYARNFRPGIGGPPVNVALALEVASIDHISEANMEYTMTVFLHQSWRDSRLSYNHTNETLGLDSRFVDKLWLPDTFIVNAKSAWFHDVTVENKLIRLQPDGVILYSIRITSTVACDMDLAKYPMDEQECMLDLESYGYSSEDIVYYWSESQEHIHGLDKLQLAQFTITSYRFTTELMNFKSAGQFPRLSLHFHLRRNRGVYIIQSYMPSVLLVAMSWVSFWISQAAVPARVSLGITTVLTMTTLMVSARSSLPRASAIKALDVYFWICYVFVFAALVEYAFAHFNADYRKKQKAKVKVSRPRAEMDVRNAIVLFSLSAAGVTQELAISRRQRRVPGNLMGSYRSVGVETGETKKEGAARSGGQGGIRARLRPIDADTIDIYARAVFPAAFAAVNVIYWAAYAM

Turning to `CC(=O)[C@H]1CC[C@H]2[C@@H]3CC[C@H]4C[C@H](O)CC[C@]4(C)[C@H]3CC[C@]12C` [ALLO], the pEC50 is 7.24.

The pEC50 is the negative decadic logarithm of the EC50, by convention in mol/L.
